Ends that are not written are not given here. Peptide text beside a SMILES is read from it. * marks the point of attachment. Cbz = O=C(OCc1ccccc1)*; CH2F = FC*
Assays:
HeLa cells [1] = assay: Apoptosis by hypodiploid DNA content, propidium iodide flow cytometry; type: cell-based, Human; conditions: 24 hours
Protocol: For determination of apoptosis by hypodiploid DNA content, various tumor cell lines were incubated with increasing concentrations of the cell permeable control scrambled (SEQ ID NO:25) or Survivin peptide (SEQ ID NO:19), harvested after 24 hours (floaters plus attached cells) fixed in 70% ethanol, and stained with 10 μg/ml propidium iodide plus 100 μg/ml RNAse A and 0.05% Triton™ X-100 in PBS, pH 7.4. Cultures were analyzed for DNA content by flow cytometry. For colorimetric quantification of cell viability, an MTT assay was used. Various tumor cell lines were incubated with increasing concentrations of the cell permeable retro-inverso control scrambled P4 or the Survivin-specific P3 peptide, incubated for 24 hours at 37° C. washed twice with Bruffs Media, and 4,5-dimethylthiazol-2-yl)-2,5-diphenyltetrazolium bromide (MTT) (Sigma, St. Louis, Mo.) was added at 5 mg/ml. Decrease in cell viability was analyzed for loss of colorimetric absorption at OD405.
HeLa cells were incubated with the indicated increasing concentrations of the cell permeable Control (scrambled) or Survivin peptide, harvested after 24 hours at 37° C., and analyzed by hypodiploid DNA content by propidium iodide staining and flow cytometry.
HeLa cells were incubated with chemotherapeutic drugs Taxol™ (10 μM) or adriamycin (300 nM), or cell permeable control peptide or the Survivin peptide, harvested after 24 hours, and analyzed for induction of apoptosis by hypodiploid DNA content by flow cytometry.

HeLa cells [2] = assay: Proteasome or caspase inhibitor effect on GA-mediated Survivin/XIAP degradation, Western blotting; type: cell-based, Human; conditions: for reversal of loss of XIAP expression caused by GA: HeLa cell extracts, GA with inhibitor
Protocol: Extracts from HeLa cells treated with 1 μM GA for 30 hours in the presence or absence of 5 μM of the proteasome inhibitor lactacystin were analyzed for changes in Survivin or β-actin levels by Western blotting. Antibodies to actin were obtained from Sigma. […] Levels of β-actin were unaffected by treatment in this experiment.
HeLa cell extracts were collected after exposure to the indicated concentrations of GA in the absence (None) or in the presence of the proteasome inhibitor, lactacystin or the broad spectrum caspase inhibitor, ZVAD-fink. Loss of XIAP expression in the presence of Hsp90 inhibition by GA is reversed by lactacystin but not ZVAD-fink, as indicated by Western blotting for XIAP depicted in FIG. 5C (* indicates non-specific band).

Hsp90 = target: T1, Hsp90 (Homo sapiens, UniProt P07900); assay: Surface plasmon resonance of immobilized biotin peptides with r-Hsp90; type: binding
T1 construct: GST-Hsp90 (amino acids 1-732); GST (N); made in house; host or cells: E. coli
Protocol: Wild type Survivin peptide 77 to 91 (SEQ ID NO:22) or the corresponding C84A mutant 77-91 peptide (HKKHSSGAAFLSVKK; SEQ ID NO:23) was synthesized with an N-terminal biotin and immobilized on streptavidin coated chips (SA5) purchased from Biacore Inc. (Piscataway, N.J.). Increasing concentrations (100 nM-10 μM) of purified r-Hsp90 suspended in 10 mM HEPES, 150 mM NaCl, 3 mM EDTA, 0.005% polysorbate-20, 1 mM DTT, were then injected in […] over the immobilized peptides. A constant flow rate of […] was maintained, and the dissociation phase was followed for 300 seconds. Surfaces were regenerated using […] of 1 M NaCl/50 mM NaOH after each dissociation phase. A new injection cycle was initiated only after 10 min post-regeneration to ensure complete removal of NaCl and NaOH. The collected data were analyzed using the Biaeval 3.0 software package from Biacore Inc.
Sensorgrams (FIG. 10B) indicate binding of the Survivin peptides to Hsp90, measured by an increase in surface plasmon resonance during analyte flow over the chip surface, with the nonspecific signal from the biotin-only surface subtracted.

[3] = target: T2, Hsp90-Survivin binding interactions (Homo sapiens, UniProt P07900, S63T); assay: ELISA: Survivin peptides inhibiting Hsp90 binding to immobilized Survivin; conditions: 20 μg/ml peptide preincubated with Hsp90, 16 hours, 4° C.
T2 construct: GST-Hsp90 (amino acids 1-732); GST (N); made in house; host or cells: E. coli
Protocol: ELISA experiments were performed by immobilizing recombinant Survivin (r-Survivin) ([…]) or recombinant Hsp90 (r-Hsp90) (10 μg/ml) on plastic microtiter wells (Immulon™-2, Dynatech Laboratories, Chantilly, Va.) using bicarbonate buffer, pH 9.5 (100 μl/well) for 18 hours at 4° C. Bound protein was blocked with 3% gelatin for 1 hour at 37° C., rinsed with washing buffer (TBS pH 7.4, 0.1% Tween™, 0.1% BSA) and incubated for 1 hour at 37° C. with different concentrations of a test protein to determine if the test protein bound the immobilized protein.
ELISA experiments were performed essentially as in Example 2 with the following variations. 20 μg/ml of each recombinant Survivin peptide (expressed in E. coli) was preincubated with Hsp90 at 2.5 mg/ml for 16 hours at 4° C. After binding and blocking of full length Survivin to wells in a microtiter plate, the preincubated mixtures of Hsp90 and Survivin peptides were added to the wells and incubated for 1 hour at 37° C. Wells were washed, incubated with primary antibody, washed again, and bound antibody was quantified as described above. Each experiment was repeated three times and the standard deviation is shown.

[4] = test system: HL-60 and THP-1 AML cell lines; assay: MTT cell viability, short versus full length peptide; type: cell-based; conditions: 4×10^5 cells
Protocol: FIGS. 29B-29D are graphs depicting killing of AML cells by Survivin peptides. FIG. 29B depicts survivin peptide activity in HL-60 cells, measured by Trypan blue exclusion. FIGS. 29C and 29D depict killing, as measured using MTT, of HL-60 (FIG. 29C) or THP-1 (FIG. 29D) cells by full length Survivin peptide (SEQ ID NO:19), Survivin peptide K79-G83 (SEQ ID NO:20), or scrambled peptide (SEQ ID NO:25 and SEQ ID NO:28).
The activity of a shorter Survivin peptide was also tested in an AML cell line. A shorter cell permeable Survivin peptide was synthesized by fusing the third α-helix of the Antennapedia carrier sequence to the amino-terminus of the Survivin peptide sequence K79-G83 (SEQ ID NO:20). […] The scrambled control peptide ([…]; SEQ ID NO:28) was ineffective (FIGS. 29C, D). For these experiments a higher number of cells was used (4×10^5) to produce a 50% killing efficiency by full length survivin peptide.

[5] = test system: U937, K562, HL60, THP1 AML cell lines; assay: MTT cell viability in AML cell lines; type: cell-based, human
Protocol: FIG. 30 is a graph depicting killing activity of survivin K79-G83 in AML cells. The indicated human AML cell lines (U937, K562, HL60, and THP1) were incubated with scrambled (SEQ ID NO:28) or Survivin (SEQ ID NO:20) peptides and evaluated for cell viability by MTT.
The effect of the K79-G83 Survivin peptide was characterized in more detail for anti-tumor activity in AML. The K79-L87 (SEQ ID NO:19) and K79-G83 peptides (SEQ ID NO:20) were incubated with AML cells, and cell viability was measured using MTT.

recombinant Hsp90 = target: T3, recombinant Hsp90 (Homo sapiens, UniProt P07900, S63T); assay: ELISA binding to recombinant Hsp90
T3 construct: GST-Hsp90 (amino acids 1-732); GST (N); made in house; host or cells: E. coli
From the text: (§1) FIG. 31 is a graph depicting Hsp90 binding by Survivin peptides, measured by ELISA. Data are the mean±S.D. of two independent experiments.

survivin-Hsp90 = target: T4, survivin-Hsp90 (Homo sapiens, UniProt P07900, S63T); assay: ELISA inhibition of recombinant survivin binding to Hsp90
T4 construct: GST-Hsp90 (amino acids 1-732); GST (N); made in house; host or cells: E. coli
From the text: as §1

HeLa cells [6] = assay: Stability of Hsp90 client proteins and caspase-3 proform, Western blot; type: cell-based, Human; conditions: increasing concentrations, 24 hours
Protocol: To determine whether intracellular loading of the Survivin cell permeable peptide reproduced the effect of mAb 8E2 that disrupts the Survivin-Hsp90 interaction in destabilizing Survivin levels in vivo (FIG. 8), HeLa cells were loaded with the indicated increasing concentrations of cell permeable control (SEQ ID NO:25) or Survivin (SEQ ID NO:19) cell permeable peptide, harvested after 24 hours, and analyzed for stability of Hsp90 client proteins, Survivin and Akt. Polyclonal antibody to Akt was obtained from Cell Signaling Technology (Cat. No. 9272).

[7] = test system: DU145, PC3, HeLa tumor cell lines; assay: MTT colorimetric viability assay, tumor cell lines; type: cell-based; conditions: increasing concentrations, 24 hours
Protocol: (§2) FIGS. 22A and 22B compares the effect of P31 (SEQ ID NO:19) or P33 (SEQ ID NO:25) on apoptosis of tumor cell lines (FIG. 22A) and normal cell lines (FIG. 22B). The following tumor cell lines DU145 (prostate cancer, circles), PC3 (prostate cancer, triangles), or HeLa (cervical carcinoma, squares) were treated with the indicated increasing concentrations of P31 peptide (solid symbols) or control P33 peptide (open symbols), harvested after 24 hours, and analyzed for cell viability using an MTT colorimetric assay. For normal cell types (right panel), HFF (human foreskin fibroblasts, squares), HGF (human fibroblasts, triangles) or WS-1 (human epithelial cells, circles) were treated with P31 (solid symbols) or control scrambled peptide P33, harvested after 24 hours and analyzed for overall cell viability by MTT colorimetric assay. All cell lines were from ATCC.

[8] = test system: HFF, HGF, WS-1 normal cells; assay: MTT colorimetric viability assay, normal cell types; type: cell-based, human; conditions: 24 hours
Protocol: as §2

HeLa cells [9] = assay: Annexin V labeling and propidium iodide multiparametric flow cytometry; type: cell-based, Human; conditions: increasing concentrations, eight hour incubation, 37° C.
Protocol: HeLa cell cultures were treated with the indicated increasing concentrations of P31 (Survivin) or P33 (Control; SEQ ID NO:25) peptides, harvested after an eight hour incubation at 37° C., and analyzed for multiparametric flow cytometry of Annexin V labeling (X-axis, a marker of apoptosis) and propidium iodide staining (Y-axis, a marker of cell death).

PC3 cells = assay: Immunoblotting of Hsp90 client proteins; type: cell-based; conditions: 75 and 150 μM, 8 hours
Protocol: Survivin affects the stability and function of Hsp90 client proteins in tumor cells. PC3 cells were untreated or exposed to 75 and 150 μM concentrations of the survivin peptide (SEQ ID NO:19) (or control scrambled peptide; SEQ ID NO:25) for 8 hours and processed for immunoblotting against the Hsp90 client proteins survivin, AKT, and CDK-6. […] Conversely, the levels of Hsp90, Hsp70, and PCNA were not affected (FIG. 26A).

HL-60 cells = assay: Cell killing by trypan blue exclusion; type: cell-based
Protocol: The expression and function of the survivin-Hsp90 pathway in acute myelogenous leukemia (AML) cell lines was analyzed. Survivin was abundantly expressed in four AML cell lines, U937, K-562, THP-1 and HL-60, by Western blotting (FIG. 29A).

In the case of CC(=O)O[C@H]1C(=O)[C@@]2(C)[C@H]([C@H](OC(=O)c3ccccc3)[C@]3(O)C[C@H](OC(=O)[C@H](O)[C@@H](NC(=O)c4ccccc4)c4ccccc4)C(C)=C1C3(C)C)[C@]1(OC(C)=O)CO[C@@H]1C[C@@H]2O [Taxol, paclitaxel], the “loss of cell viability by hypodiploid DNA content” value (HeLa cells [1]; 10 μM) is reported as “does not result in significant loss of cell viability”.

For COC(=O)C[C@H](NC(=O)[C@H](C)NC(=O)[C@@H](NC(=O)OCc1ccccc1)C(C)C)C(=O)CF [ZVAD-fink, Z-Val-Ala-Asp (OMe)-CH2F] (Cbz-Val-Ala-Asp(OMe)-CH2F), the “reversal of loss of XIAP expression caused by GA” value (HeLa cells [2]) was “not”.

In the case of COc1cccc2c1C(=O)c1c(O)c3c(c(O)c1C2=O)C[C@@](O)(C(=O)CO)C[C@@H]3O[C@H]1C[C@H](N)[C@H](O)[C@H](C)O1 [adriamycin], the “loss of cell viability by hypodiploid DNA content” value (HeLa cells [1]; 300 nM) is reported as “does not result in significant loss of cell viability”.

In the case of CC(=O)N[C@@H](CSC(=O)[C@]1([C@@H](O)C(C)C)NC(=O)[C@H](C)[C@@H]1O)C(=O)O [lactacystin], the “Survivin levels following lactacystin and GA treatment” value (HeLa cells [2]; 1 μM GA for 30 hours, 5 μM lactacystin) is reported as “at or above the levels of untreated cells” and the “reversal of loss of XIAP expression caused by GA” value (HeLa cells [2]) is reported as “reversed”.

For “HKKHSSGAAFLSVKK (Synthetically generated peptide) [SEQ ID NO:23, C84A mutant 77-91 peptide]”, the “on-rates, wild type versus C84A peptide” value (Hsp90) was “similar”.

KHSSGCAFLSVK [SEQ ID NO:3] was tested, and the “inhibition of Hsp90-Survivin binding interactions” value [3] was “especially effective inhibitor”.

In the case of “RQIKIWFQNRRMKWKKKHSSG (Synthetically generated peptide) [SEQ ID NO:20]”, the “reduction of cell viability (MTT)” value [4] is reported as “considerably more active than the P31 peptide”, the “cell viability (MTT), killing of AML cell lines” value (“cell viability (MTT), killing” below) [5] is reported as “efficiently killed all AML cell lines tested” and the “binding to recombinant Hsp90 in vitro” value (recombinant Hsp90) is reported as “comparably bound recombinant Hsp90”. The “inhibition of binding of recombinant survivin to Hsp90” value (survivin-Hsp90) was “inhibited the binding of recombinant survivin to Hsp90 in a dose-dependent manner”.

With “RQIKIWFQNRRMKWKKSGKHS (Synthetically generated peptide) [SEQ ID NO:28, scrambled control peptide for K79-G83, reference compound]” the “reduction of cell viability (MTT)” value [4] was “ineffective” and the “cell viability (MTT), killing” value [5] was “no effect”.

“RQIKIWFQNRRMKWKKSKLACFSHG (Synthetically generated peptide) [P33, reference compound]” was tested, and the “cell population with hypodiploid DNA content (apoptotic)” value (HeLa cells [1]; peptides, comparison with chemotherapeutic drugs) was “not”, the “levels of Survivin and Akt” value (HeLa cells [6]) was “ineffective” and the “cell death in cancer cell lines (MTT)” value [7] was “did not induce cell death in cancer or normal cell types”. For the same compound, the “cell death in normal cell types (MTT)” value [8] was “did not induce cell death in cancer or normal cell types”, the “induction of apoptosis (Annexin V / propidium iodide)” value (HeLa cells [9]) was “ineffective” and the “Hsp90 client proteins (survivin, Akt, CDK-4, CDK-6)” value (PC3 cells) was “not”. For the same compound, the “cell killing (trypan blue exclusion)” value (HL-60 cells) was “ineffective” and the “cell viability (MTT), killing” value [5] was “no effect”.

Reference: patent US8420777B2, “Compounds that inhibit Hsp90 protein-protein interactions with IAP proteins” (University of Massachusetts, priority 2004, dated 2013)
